Measured values from PMC10761377 (2023).

Tests used:
[1] = tested on: FPAP (fipronil aptamer with primers) (DNA, aptamer) TGTACCGTCTGAGCGATTCGTACAGTTTCTGGAGGACTGGGCGGGGTGACGGTTATGAGCCAGTCAGTGTTAAGGAGTGC; assay: chronoamperometric binding titration on SPCE (streptavidin-HRP/TMB); settings: NaCl 100 mM, MgCl2 2 mM; Tris-HCl 20 mM; 30 min; apparent; immobilised compound (amide-linked to poly-2-aminobenzoic acid electrode); logistic fit
[2] = tested on: FPAS (fipronil aptamer Short) (DNA, aptamer) AGTTTCTGGAGGACTGGGCGGGGTGACGGTTATG; assay: as above; settings: NaCl 100 mM, MgCl2 2 mM; Tris-HCl 20 mM; 30 min; apparent; immobilised compound (amide-linked to poly-2-aminobenzoic acid electrode); logistic fit
[3] = tested on: FPAS (fipronil aptamer Short) (DNA, aptamer) AGTTTCTGGAGGACTGGGCGGGGTGACGGTTATG; assay: electrochemical competitive replacement assay (chronoamperometry); settings: free fipronil displaces 1 µM-loaded aptamer from immobilised fipronil; 1 h

N#Cc1nn(-c2c(Cl)cc(C(F)(F)F)cc2Cl)c(N)c1S(=O)C(F)(F)F (stereo not drawn)
KD [1]: 94.3 ± 0.5 nM
KD [2]: 24.9 ± 1.7 nM
binding [3]: yes
